{"source": "patent US20100233249A1", "about": "“CONTRACEPTIVE METHODS AND COMPOSITIONS RELATED TO PROTEASOMAL INTERFERENCE” (priority 2003, published 2010)", "key": {"[1]": {"system": "zona-enclosed oocytes / boar spermatozoa", "test": "Porcine in vitro fertilization of zona-enclosed (zona-intact) oocytes with inhibitor or antibody in the fertilization medium", "assay_type": "cell-based", "settings": "for Monospermic (%) / Monospermic (number of oocytes) / Not fertilized (%) / Not fertilized (number of oocytes) / Polyspermic (%) / Polyspermic (number of oocytes): 10 uM in culture medium at the time of insemination, 20 h p.i.; for penetration of ZP: 100 uM concentration; for fertilization of zona-enclosed (zona-intact) oocytes: agent in fertilization medium during porcine IVF"}, "[2]": {"system": "zona-free oocytes / boar spermatozoa", "test": "Porcine in vitro fertilization of zona-free oocytes", "assay_type": "cell-based", "description": "IVF was performed using zona-enclosed and zona-free (ZF or ZP−) oocytes in the presence or absence of MG132 and antibody MECL-1. Removal of the zona pellucida was accomplished by a brief (30 sec) exposure of oocytes to 0.5% pronase (Sigma, St. Louis, Mo.). Oocytes were washed extensively and ZF oocytes were allowed to recover from enzymatic treatment for 1 h prior to insemination. For IVF, ZF oocytes were co-incubated with 1×10^5 sperm/ml while zona-enclosed/zona-intact (ZI or ZP+) oocytes were treated as described above. Oocytes were fixed 12 h post insemination (p.i.) in 25% acetic acid/ethanol and stained with 1% orcein to determine the incidence of fertilization. In some experiments, oocytes were evaluated by immunofluorescence microscopy, detecting the presence of pronuclei and sperm tails in the zygotic cytoplasm.\nTo ascertain that the fertilizing capability of boar spermatozoa was not diminished by some non-specific effect of proteasomal inhibitors on the sperm motility or sperm ability to fuse with the oocyte plasma membrane, porcine oocytes were stripped of ZP and fertilized with acrosome-intact spermatozoa in the presence or absence of MG132 (FIG. 5 A-H). […] MG132 had no effect on the fertilization of zona-intact oocytes when either oocytes or spermatozoa were pre-incubated with it and used for insemination after extensive washing."}, "[3]": {"system": "boar spermatozoa bound to the zona pellucida", "test": "Sperm-zona binding and sperm acrosomal status (DAPI, c-Yes immunofluorescence)", "assay_type": "cell-based, porcine", "description": "To evaluate sperm-zona binding and sperm acrosomal status, zona-enclosed oocytes were fixed and the tyrosine kinase c-Yes, known to be present in the subacrosomal and outer acrosomal layer of perinuclear theca in spermatozoa with an intact acrosome (Leclerc and Goupil, 2002) was evaluated by immunofluorescence. The number of spermatozoa bound to the zona pellucida was determined after staining with DAPI. Five eggs per group were counterstained with an antibody against the acrosomal tyrosine kinase c-Yes (see Immunofluorescence) and DAPI and photographed at 60× magnification. ZP-bound acrosome-reacted and acrosome intact spermatozoa were counted and the values were expressed as a percent (%) of acrosome intact sperm/egg. Treatment results were compared by χ2 test and by general linear model procedures of SAS 8.2.\nIt was first observed that proteasomal inhibitors lactacystin and MG132 prevent fertilization in the course of studies aimed at confirming the proteasomal route of degradation of the paternal, sperm mitochondria inside the porcine zygote (Sutovsky et al., 2003). This study was followed up on by experiments designed to determine at which step of fertilization the inhibitors exert the block. […] The experiment was repeated four times with consistent results. […] To rule out that MG132 affects sperm viability, sperm-zona binding or acrosomal exocytosis, oocytes fertilized in the presence of 10 μM MG132 were fixed with their zona pellucida intact at 20 h p.i. Sperm heads bound to ZP were detected with DAPI and intact acrosomes were detected by antibodies against tyrosine kinase c-Yes, known to reside in the sub-acrosomal and outer acrosomal layer of perinuclear theca of acrosome-intact spermatozoa (FIG. 1 A-D). Since the spermatozoa in this experiment were pre-labeled with MitoTracker CMTM Ros, the sperm mitochondrial sheaths were rendered detectable inside the fertilized oocytes. […] However, there was no significant difference in the number of sperm bound per egg (99.3 with MG132 vs. 93.3 in control) or in the percentage of acrosome-intact, zona-bound sperm (2.01% with MG132 vs. 2.14% in control)."}, "[4]": {"system": "ubiquitin-immuno-reactive ZP proteins", "test": "Western blotting / Coomassie staining of ubiquitin-immuno-reactive ZP proteins after IVF", "assay_type": "cell-based, porcine", "settings": "MG132 in fertilization medium; 6 h p.i.", "description": "SDS-PAGE and Western blotting were carried out as generally described in Sambrook et al. (2001). Oocytes and zygotes were removed from culture at given time points, washed repeatedly in a protein-free TALP HEPES and 350 zygotes per group were boiled for 5 min in […] of loading buffer containing Tris (50 mM), β-mercaptoethanol (5%), glycerol (10%), SDS (2%) and PMSF (100 mM). Boar sperm proteins were extracted by grinding in extraction buffer (50 mM Tris, 20 mM imidazole, 1 mM EDTA, 5 mM benzamidine HCl, 5 μg/ml leupeptine, 1 μg/ml pepstatin A, 100 mM PMSF and 0.1% SDS), centrifuged at 17000×g for 30 min. β-mercaptoethanol, glycerol, SDS were added to the supernatants, achieving the final concentrations as that of the loading buffer. Human spermatozoa were boiled with loading buffer, followed by centrifugation at 25000×g for 30 min to remove the DNA pellet. […] After incubating overnight with the primary anti-ubiquitin antibodies and then with the appropriate biotin-conjugated secondary antibodies, the signals were detected with alkaline phosphatase reaction, using Vectastain ABC-AmP kit (Vector Lab Inc., Burlingame, Calif.).\nNext, it was determined whether some of the ubiquitin-immuno-reactive ZP substrates undergo degradation after sperm binding to ZP, and whether such degradation can be prevented by proteasomal inhibitors. […]"}, "[5]": {"system": "bovine ova / bull spermatozoa", "test": "Bovine in vitro fertilization", "assay_type": "cell-based", "description": "The effect of proteasomal interference on the ability of bull spermatozoa to fertilize bovine ova was analyzed in vitro. Specific, fully reversible proteasomal inhibitor MG132 (100 μM) was added to fertilization medium at the time of insemination. This allowed fertilization to occur only in 3 out of […] ova examined at 20 h post insemination (2.8% rate of fertilization; Table 2). […] Proteasomes in pronuclei were detected with an antibody against α-type and β-type proteasomal subunits. DNA was visualized with DAPI (blue).\nHowever, several groups of ova were preincubated with 100 μM MG132 for 2 hours prior to fertilization to rule out that MG132 could block or hinder fertilization by a direct effect on zona pellucida oolemma or ooplasm, as opposed to an inhibitory effect on sperm acrosome-borne proteasomes (Sutovsky et al., 2003a, b)."}, "pronuclei of bovine ova": {"system": "pronuclei of bovine ova", "test": "Pronuclear development in bovine fertilized ova (immunofluorescence)", "assay_type": "cell-based", "description": "The ubiquitin-proteasome pathway was until recently ascribed solely to cytoplasmic compartment. The presence and proteolytic activity of proteasomes in the nuclear compartment of […] was analyzed. Specific immune sera were used for the immunolocalization of proteasomal subunits LMP2, α/β and MECL1 in bovine pronuclear zygotes at various stages of pronuclear development. […] Proteasomal subunits started to infiltrate both male and female pronuclei at the initial stage of sperm nuclear decondensation. Both the male and the female pronuclei become occupied by proteasomes prior to reaching full size and apposition. High density of proteasomes was observed inside the apposed, full-sized pronuclei in both monospermic and polyspermic ova, and in cases of asynchronous pronuclear development. […] The sperm tail was visualized by the preincubation of spermatozoa prior to fertilization with a vital mitochondrial dye MitoTracker Green FM (green).\nSuch fertilization in presence of low concentration MG132 allowed the observation of the effects of proteasomal interference on pronuclear development. […] DNA was stained with blue fluorecent DAPI and sperm tails inside the fertilized ova were identified by the presence of green fluorescence, which accumulated in sperm mitochondrial sheath during sperm preincubation with MitoTracker GreenFM. […]"}, "[6]": {"system": "bovine ova / bull spermatozoa", "test": "Bovine in vitro fertilization", "assay_type": "cell-based", "settings": "10 μM MG132"}, "rat ova": {"system": "rat ova", "settings": "Josefsberg et al., 2000; cited from earlier work"}, "[7]": {"settings": "10 μM MG132, 20 hours post insemination"}, "[8]": {"settings": "100 μM at fertilization, 20 h post insemination"}, "[9]": {"settings": "100 μM at fertilization, 20 h post insemination, listed as MG 132"}, "[10]": {"settings": "100 μM ovum preincubation 2 h, IVF in absence of MG132"}}, "note": "“Also recorded” adds a separate entry of the source. Where a SMILES comes first, the peptide text is derived from it. The star is where a group is joined. Cbz = O=C(OCc1ccccc1)*"}
{"compound": "CC(=O)N[C@@H](CSC(=O)[C@]1([C@@H](O)C(C)C)NC(=O)[C@H](C)[C@@H]1O)C(=O)O", "note": "[lactacystin]", "values": [{"measurement": "Monospermic (%)", "setting": "[1]", "result": 65, "unit": "%"}, {"measurement": "Monospermic (number of oocytes)", "setting": "[1]", "result": 13}, {"measurement": "Not fertilized (%)", "setting": "[1]", "result": "(25%)"}, {"measurement": "Not fertilized (number of oocytes)", "setting": "[1]", "result": 5}, {"measurement": "Polyspermic (%)", "setting": "[1]", "result": 10, "unit": "%"}, {"measurement": "Polyspermic (number of oocytes)", "setting": "[1]", "result": 2}, {"measurement": "Monospermic (%)", "setting": "[1]; listed as Lactacystin", "result": "(65%)"}, {"measurement": "Polyspermic (%)", "setting": "[1]; listed as Lactacystin", "result": "(10%)"}, {"measurement": "fertilization at threshold concentration", "setting": "[1]; 10 uM lactacystin", "result": "did not prevent fertilization"}, {"measurement": "penetration of ZP", "setting": "[1]", "result": "completely inhibited"}, {"measurement": "effect on fertilization rates", "setting": "[1]; added at the time of insemination", "result": "dose-dependent effect"}, {"measurement": "fertilization of zona-enclosed (zona-intact) oocytes", "setting": "[1]", "result": "completely prevented fertilization"}, {"measurement": "block of fertilization", "setting": "[1]; lactacystin at 100 μm concentration", "result": 100, "unit": "%"}]}
{"compound": "CC(C)C[C@@H](C=O)NC(=O)[C@H](CC(C)C)NC(=O)[C@H](CC(C)C)NC(=O)OCc1ccccc1", "note": "[MG132, Z-Leu-Leu-Leu-CHO] (Cbz-Leu-Leu-Leu-aldehyde)", "values": [{"measurement": "fertilization", "setting": "[1]; 10 μM MG132, fixed at 20 h p.i.", "result": 0, "unit": "%"}, {"measurement": "Monospermic (number of oocytes)", "setting": "[1]", "result": 0}, {"measurement": "Not fertilized (%)", "setting": "[1]", "result": "(100%)"}, {"measurement": "Not fertilized (number of oocytes)", "setting": "[1]", "result": 19}, {"measurement": "Polyspermic (number of oocytes)", "setting": "[1]", "result": 0}, {"measurement": "penetration of ZP", "setting": "[1]", "result": "completely inhibited"}, {"measurement": "oocytes in which fertilization was prevented", "setting": "[1]; MG132 added at the time of insemination, four trials", "result": 100, "unit": "%"}, {"measurement": "fertilization of zona-enclosed (zona-intact) oocytes", "setting": "[1]", "result": "completely prevented fertilization; also recorded: inhibited in vitro fertilization"}, {"measurement": "fertilization of zona-intact oocytes after pre-incubation", "setting": "[1]; oocytes or spermatozoa pre-incubated with MG132, extensive washing before insemination", "result": "had no effect"}, {"measurement": "fertilization of zona-free oocytes", "setting": "[2]; agent present during porcine IVF", "result": "had no effect"}, {"measurement": "zona-free oocytes fertilized", "setting": "[2]; in the presence or absence of MG132, most polyspermic", "result": "92-96%"}, {"measurement": "gamete viability, sperm-egg binding and sperm-acrosome reaction", "setting": "[3]; [7]", "result": "does not impair"}, {"measurement": "spermatozoa with intact acrosomes on an oocyte (FIG. 1C)", "setting": "[3]; [7]", "result": "three"}, {"measurement": "number of sperm bound per egg", "setting": "[3]; 10 μM MG132, 20 h p.i.", "result": 99.3}, {"measurement": "percentage of acrosome-intact, zona-bound sperm", "setting": "[3]; 10 μM MG132, 20 h p.i.", "result": 2.01, "unit": "%"}, {"measurement": "sperm-oocyte binding examined by light microscopy", "setting": "[3]; ZP+/MG132+ zygotes used for western blotting", "result": "not affected"}, {"measurement": "degradation of ZP-contributed oocyte proteins after IVF", "setting": "[4]", "result": "effectively prevented"}, {"measurement": "block of bovine fertilization", "setting": "[5]; 100 μM MG132", "result": "completely"}, {"measurement": "M-II/partheno (number of ova)", "setting": "[5]; 100 μM at fertilization", "result": 40}, {"measurement": "Partheno (number of ova)", "setting": "[5]; 100 μM at fertilization", "result": 0}, {"measurement": "Fertilized (%), rate of fertilization", "setting": "[5]; [8]", "result": 2.8, "unit": "%"}, {"measurement": "Fertilized (number of ova)", "setting": "[5]; [8]", "result": 3}, {"measurement": "Fertilized (%), rate of fertilization", "setting": "[5]; [9]", "result": "(2.44%)"}, {"measurement": "Fertilized (number of ova)", "setting": "[5]; [9]", "result": 1}, {"measurement": "Fertilized (%), fertilization rate", "setting": "[5]; [10]", "result": 97.5, "unit": "%"}, {"measurement": "Fertilized (number of ova)", "setting": "[5]; [10]", "result": 40}, {"measurement": "M-II/partheno (number of ova)", "setting": "[5]; [10]", "result": 1}, {"measurement": "Partheno (number of ova)", "setting": "[5]; [10]", "result": 0}, {"measurement": "Fertilized (%), fertilization rate", "setting": "[5]; 100 μM ovum preincubation 2 h, IVF in absence of MG132, listed as MG 132", "result": "(97.56%)"}, {"measurement": "effect on fertilization or pronuclear development", "setting": "[5]; preincubation of unfertilized ova with 100 μM MG132 for 2 h prior to IVF in absence of MG132", "result": "had no effect on fertilization or pronuclear development"}, {"measurement": "anomalies in oocyte morphology", "setting": "[5]; treatment during bovine IVF", "result": "Neither MG132 nor anti-MECL1 treatments were accompanied by identifiable anomalies"}, {"measurement": "pronuclear development in fertilized ova", "setting": "pronuclei of bovine ova; fertilized in presence of 10 μM MG132", "result": "Abnormal pronuclear development and premature chromosome condensation (PCC) was observed"}, {"measurement": "import of proteasomal subunits into pronuclei", "setting": "pronuclei of bovine ova; preincubation of ova with 100 μM MG132 prior to fertilization", "result": "had no effect"}, {"measurement": "block of bovine fertilization", "setting": "[6]", "result": "inhibited the fertilization only partially"}, {"measurement": "average fertilization rate", "setting": "[6]; two separate trials", "result": 38.2, "unit": "%"}, {"measurement": "progression of meiosis and pronuclear development", "setting": "rat ova", "result": "inhibited"}]}
